In the NIST ThermoML archive (doi:10.1016/j.jct.2018.12.021):

Test: mn = molality of the nth substance listed, in mol/kg
Settings: for electrical conductivity / mass density: 100 kPa, Liquid; for electrical conductivity: Direct current cell with electrodes; for mass density: Vibrating tube method; for surface tension liquid-gas: Ring tensiometer

CCCCCCCCCCCC[n+]1ccsc1.[Br-] [N-dodecylthiazolium bromide] + O
Settings | electrical conductivity, 293.15 K [S/m] | electrical conductivity, 298.15 K [S/m] | electrical conductivity, 303.15 K [S/m] | mass density, 293.15 K [kg/m3] | mass density, 298.15 K [kg/m3] | surface tension liquid-gas, 303.15 K [mN/m]
m1 = 0.00122 | – | – | – | 998.24 | 997.08 | –
m1 = 0.00157 | 0.0131 | 0.0147 | 0.0164 | 998.27 | 997.1 | 60.2
m1 = 0.00191 | – | – | – | 998.29 | 997.12 | –
m1 = 0.00201 | 0.017 | 0.0189 | 0.0209 | 998.3 | 997.13 | 57.03
m1 = 0.00258 | – | – | – | 998.33 | 997.16 | –
m1 = 0.00299 | 0.0246 | 0.0276 | 0.0305 | 998.36 | 997.19 | 53.96
m1 = 0.00326 | – | – | – | 998.38 | 997.21 | –
m1 = 0.00407 | 0.033 | 0.0365 | 0.0402 | 998.43 | 997.26 | 49.57
m1 = 0.00429 | – | – | – | 998.45 | 997.28 | –
m1 = 0.00507 | 0.0421 | 0.0469 | 0.0517 | 998.5 | 997.33 | 43.38
m1 = 0.00548 | – | – | – | 998.53 | 997.36 | –
m1 = 0.00602 | 0.0483 | 0.0535 | 0.0589 | 998.57 | 997.39 | 41.31
m1 = 0.00698 | 0.0568 | 0.0632 | 0.0694 | 998.64 | 997.46 | 38.15
m1 = 0.00753 | 0.0603 | 0.0671 | 0.0734 | 998.68 | 997.5 | 37.87
m1 = 0.00905 | 0.0699 | 0.0779 | 0.0859 | 998.78 | 997.61 | 32.2
m1 = 0.01006 | 0.0754 | 0.0845 | 0.093 | 998.85 | 997.68 | 32.54
m1 = 0.01266 | 0.0892 | 0.1 | 0.117 | 999.01 | 997.84 | 32.07
m1 = 0.01513 | 0.0958 | 0.11 | – | 999.17 | 998 | 32.43
m1 = 0.01771 | 0.103 | 0.117 | – | 999.33 | 998.16 | 31.44
m1 = 0.01974 | 0.107 | 0.123 | – | 999.46 | 998.29 | 31.87
m1 = 0.02301 | 0.116 | 0.132 | – | 999.66 | 998.49 | –
m1 = 0.02601 | 0.123 | 0.14 | – | 999.84 | 998.67 | 32.42
